Measured values reported in patent publication US10006913B2, “Fluorescent-HAP: a diagnostic stain for HBV cores in cells” (INDIANA UNIVERSITY RESEARCH AND TECHNOLOGY CORPORATION, priority 2013, dated 2018).

Columns and labels:
[1] = biological target: HBV core protein (Cp) (Hepatitis B virus genotype D subtype ayw, UniProt P03146); test: HBV core protein (Cp) assembly rate, assembly induced by NaCl (FIG. 1); assay type: biochemical; conditions: 5 μM Cp, assembly induced with 150 mM NaCl, increasing concentration of stain
Experimental: In this experiment, 5 μM Cp was incubated with or without FL-HAPAlexaFluor® 488 (Compound 5) prior to inducing assembly by addition of 150 mM NaCl.
(§1) FL-HAPAlexaFluor® 488 (Compound 5) retains several critical properties of HAP molecules. […] Most importantly, FL-HAPAlexaFluor® 488 (Compound 5) binds pre-assembled cores with high affinity.

[2] = biological target: HBV capsids (Hepatitis B virus genotype D subtype ayw, UniProt P03146); test: Staining of pre-assembled HBV capsids, sucrose gradient and agarose gel electrophoresis (FIG. 3); assay type: binding
Experimental: Shown at left: Capsids stained with FL-HAPAlexaFluor® 488 (Compound 5) were separated on a sucrose gradient. […] Shown at right: Capsids, at the listed concentration, were stained with 25 nM FL-HAPAlexaFluor® 488 (Compound 5) prior to electrophoresis.
as §1

[3] = biological target: capsid protein of HBV (Hepatitis B virus genotype D subtype ayw, UniProt P03146); test: Binding to the capsid protein of HBV (general statement)
[4] = tested on: control HepG2 cells; test: Fluorescence microscopy of stained control cells (FIG. 4); assay type: cell-based; conditions: camera on high gain
From the text: (§2) Various forms of FL-HAP may be synthesized thereby varying the resulting solubility properties of the fluorescent stain. The more soluble forms are particularly useful for observing HBV cores in solution or serum; they may also be useful for lightly staining intracellular HBV cores. The ability of the illustrative FL-HAP compound, FL-HAPAlexaFluor® 488 (Compound 5), to cross cell membranes and label HBV-expressing cells and, specifically, to label concentrations of HBV cores in those cells, is shown in FIG. 4. […] The more hydrophobic forms of FL-HAP (e.g., Compound 6 and Compound 7) are particularly useful for rapid staining of tissue samples.

[5] = tested on: HepG2 cells expressing RNA-filled HBV cores; test: Fluorescence microscopy of stained HBV-producing cells (FIG. 4); assay type: cell-based
From the text: as §2

[6] = biological target: HBV capsid / Cp dimer (Hepatitis B virus genotype D subtype ayw, UniProt P03146); test: Size exclusion chromatography (Superose 6) of Cp assembly reactions (FIG. 2); assay type: binding
Experimental: In this experiment, 5 μM Cp was mixed with FL-HAPAlexaFluor® 488 (Compound 5) and then induced to assemble with 150 mM NaCl. Reactions were resolved on a Superose 6 column after 24 hours. Capsid elutes at 9.5 ml, aggregates at 8 ml, and Cp dimer at 18 ml.
as §1

Sequence of HBV capsid / Cp dimer (P03146 whole entry): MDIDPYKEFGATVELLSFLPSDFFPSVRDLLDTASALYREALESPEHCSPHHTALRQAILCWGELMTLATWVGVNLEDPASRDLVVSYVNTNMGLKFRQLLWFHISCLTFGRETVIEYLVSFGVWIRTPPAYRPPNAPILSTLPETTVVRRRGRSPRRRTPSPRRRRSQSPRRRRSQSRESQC
Sequence of capsid protein of HBV (P03146 whole entry): as above
Sequence of HBV capsids (P03146 whole entry): as above
Sequence of HBV core protein (Cp) (P03146 whole entry): as above

Structure (SMILES) | effect on core protein assembly rate [1] | dissociation from HBV capsids [2] | affinity for pre-assembled HBV cores ([2]; SEC, sucrose gradient, agarose gel) | binding to capsids on electrophoresis ([2]; capsids stained with 25 nM stain prior to electrophoresis, non-equilibrium conditions) | binding to the capsid protein of HBV [3] | fluorescent labeling of cells [4] | fluorescent labeling of cells ([5]; HepG2 cells expressing RNA-filled HBV cores) | co-localization of fluorescence with Cp-specific antibodies ([5]; data not shown) | extent of assembly and size of complexes ([6]; 5 μM Cp, 150 mM NaCl, Superose 6 column after 24 hours, increasing stain) | free HBV dimer remaining ([6]; SEC, as stain is added) | formation of aberrant particles ([6]; light scattering in excess of free capsid, products run faster on SEC than capsid) | copies bound per HBV capsid ([6]; ratio of protein to fluorophore absorbance across SEC peaks) | species bound by the stain (capsid vs dimer) ([6]; visualized at 495 nm)
COC(=O)C1=C(CN2CCN(C(=O)CCCNC(=O)c3ccc(-c4c5ccc(=N)c(S(=O)(=O)O)c-5oc5c(S(=O)(=O)O)c(N)ccc45)c(C(=O)O)c3)CC2)NC(c2ccccn2)=NC1c1ccc(F)cc1Cl (stereo not drawn) [Compound 5] | accelerates core protein assembly | dissociates slowly | high affinity | binding was evident at nM concentrations | specific binding | no green puncta are seen | numerous puncta and aggregates of puncta are seen | co-localize with Cp-specific antibodies | more assembly of progressively larger complexes | progressively less free HBV dimer | leads to formation of aberrant particles | approximately 120 copies | only assembled Cp (i.e., capsid) is bound
COC(=O)C1=C(CN2CCN(C(=O)CCCNC(=S)Nc3ccc(-c4c5ccc(=O)cc-5oc5cc(O)ccc45)c(C(=O)O)c3)CC2)NC(c2ccccn2)=NC1c1ccc(F)cc1Cl (stereo not drawn) [Compound 6] |  |  |  |  | specific binding |  |  |  |  |  |  |  | 
COC(=O)C1=C(CN2CCN(C(=O)CCCNC(=O)CCC3=[N+]4C(=Cc5c(C)cc(C)n5[B-]4(F)F)C=C3)CC2)NC(c2ccccn2)=NC1c1ccc(F)cc1Cl (stereo not drawn) [Compound 7] |  |  |  |  | specific binding |  |  |  |  |  |  |  | 
